Measured values reported in US20070191413A1, “Novel heterocycle-substituted hydroxy-6-phenylphenanthridines and their use as pde4 inhibitors” (Atlanta Pharma AG, priority 2004, published 2007).

Each compound was assayed against T1, PDE4B2 (Homo sapiens, UniProt Q07343) (assay: Inhibition of PDE4B2 activity in a modified SPA (scintillation proximity assay) test). Conditions: recombinant PDE4B2 (SF21 cell supernatant), [3H]cAMP SPA, 0.5 μM cAMP, 37° C.; value given as a range for the group of listed compounds; read-out: Inhibition of the PDE4 activity, −log IC50 (converted).
T1 construct: made in house; host or cells: SF21 insect cells (baculovirus; virus prepared in SF9 cells)
Assay type: biochemical
Experimental: The PDE4B2 (GB no. M97515) was a gift of Prof. M. Conti (Stanford University, USA). It was amplified from the original plasmid (pCMV5) via PCR with primers Rb9 (5′-[…]-3′) and Rb10 (5′-[…]-3′) and cloned into the pCR-Bac vector (Invitrogen, Groningen, NL).
The recombinant baculovirus was prepared by means of homologous recombination in SF9 insect cells. The expression plasmid was cotransfected with Bac-N-Blue (Invitrogen, Groningen, NL) or Baculo-Gold DNA (Pharmingen, Hamburg) using a standard protocol (Pharmingen, Hamburg). Wt virus-free recombinant virus supernatant was selected using plaque assay methods. After that, high-titre virus supernatant was prepared by amplifying 3 times. PDE was expressed in SF21 cells by infecting 2×10^6 cells/ml with an MOI (multiplicity of infection) between 1 and 10 in serum-free SF900 medium (Life Technologies, Paisley, UK). The cells were cultured at 28° C. for 48-72 hours, after which they were pelleted for 5-10 min at 1000 g and 4° C.
The SF21 insect cells were resuspended, at a concentration of approx. 10^7 cells/ml, in ice-cold (4° C.) homogenization buffer (20 mM Tris, pH 8.2, containing the following additions: 140 mM NaCl, 3.8 mM KCl, 1 mM EGTA, 1 mM MgCl2, 10 mM P-mercaptoethanol, 2 mM benzamidine, 0.4 mM Pefablock, 10 μM leupeptin, 10 μM pepstatin A, 5 μM trypsin inhibitor) and disrupted by ultrasonication. The homogenate was then centrifuged for 10 min at 1000×g and the supernatant was stored at −80° C. until subsequent use (see below). The protein content was determined by the Bradford method (BioRad, Munich) using BSA as the standard.
PDE4B2 activity is inhibited by the said compounds in a modified SPA (scintillation proximity assay) test, supplied by Amersham Biosciences (see procedural instructions “phosphodiesterase [3H]cAMP SPA enzyme assay, code TRKQ 7090”), carried out in 96-well microtitre plates (MTP's). The test volume is 100 μl and contains 20 mM Tris buffer (pH 7.4), 0.1 mg of BSA (bovine serum albumin)/ml, 5 mM Mg^2+, 0.5 μM cAMP (including about 50,000 cpm of [3H]cAMP), 1 μl of the respective substance dilution in DMSO and sufficient recombinant PDE (1000×g supernatant, see above) to ensure that 10-20% of the CAMP is converted under the said experimental conditions. […] After a preincubation of 5 min at 37° C., the reaction is started by adding the substrate (cAMP) and the assay is incubated for a further 15 min; after that, it is stopped by adding SPA beads (50 μl). In accordance with the manufacturer's instructions, the SPA beads had previously been resuspended in water, but were then diluted 1:3 (v/v) in water; the diluted solution also contains 3 mM IBMX to ensure a complete PDE activity stop. After the beads have been sedimented (>30 min), the MTP's are analyzed in commercially available luminescence detection devices. The corresponding IC50 values of the compounds for the inhibition of PDE activity are determined from the concentration-effect curves by means of non-linear regression.

T1 sequence (Q07343 1-564 isoform Q07343-2): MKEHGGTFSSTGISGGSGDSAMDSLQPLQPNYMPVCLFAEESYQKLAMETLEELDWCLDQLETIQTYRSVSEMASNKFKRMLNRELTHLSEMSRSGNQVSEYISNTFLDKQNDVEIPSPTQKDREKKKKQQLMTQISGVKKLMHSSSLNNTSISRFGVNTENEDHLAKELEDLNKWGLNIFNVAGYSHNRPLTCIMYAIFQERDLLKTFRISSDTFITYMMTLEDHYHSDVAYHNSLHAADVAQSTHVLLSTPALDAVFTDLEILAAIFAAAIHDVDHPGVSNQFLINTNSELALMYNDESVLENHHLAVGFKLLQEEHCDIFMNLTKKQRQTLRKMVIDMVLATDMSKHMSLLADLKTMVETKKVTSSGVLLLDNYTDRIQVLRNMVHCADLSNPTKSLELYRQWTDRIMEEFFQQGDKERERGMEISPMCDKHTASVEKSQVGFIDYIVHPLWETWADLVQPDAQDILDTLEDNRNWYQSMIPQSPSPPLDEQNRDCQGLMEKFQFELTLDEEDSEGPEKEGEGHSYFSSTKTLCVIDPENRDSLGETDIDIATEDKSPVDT

IC50, 0.724 to 7.41 nM:
CCOc1cc2c(cc1OC)C(c1ccc(-n3ccnc3)cc1)=N[C@@H]1CC[C@@H](O)C[C@H]21 (racemic) [Compound 1, (2RS,4aRS,10bRS)-9-Ethoxy-6-(4-imidazol-1 yl-phenyl)-8-methoxy-1,2,3,4,4a,10b-hexahydro-phenanthridin-2-ol]
CCOc1cc2c(cc1OC)C(c1ccc(N3CCN(C)CC3)cc1)=N[C@@H]1CC[C@@H](O)C[C@H]21 (racemic) [Compound 2, (2RS,4aRS,10bRS)-9-Ethoxy-8-methoxy-6-[4-(4-methyl-piperazin-1-yl)-phenyl]-1,2,3,4,4a,10b-hexahydro-phenanthridin-2-ol]
CCOc1cc2c(cc1OC)C(c1ccc(-c3nc(OC)cc(OC)n3)cc1)=N[C@@H]1CC[C@@H](O)C[C@H]21 (racemic) [Compound 3, (2RS,4aRS,10bRS)-6-[4-(4,6-Dimethoxy-pyrimidin-2-yl)-phenyl]-9-ethoxy-8-methoxy-1,2,3,4,4a,10b-hexahydro-phenanthridin-2-ol]
CCOc1cc2c(cc1OC)C(c1ccc(-c3csnn3)cc1)=N[C@@H]1CC[C@@H](O)C[C@H]21 (racemic) [Compound 4, (2RS,4aRS,10bRS)-9-Ethoxy-8-methoxy-6-(4-[1,2,3]thiadiazol-4-yl-phenyl)-1,2,3,4,4a,10b-hexahydro-phenanthridin-2ol]
CCOc1cc2c(cc1OC)C(c1ccc(N3CCOCC3)cc1)=N[C@@H]1CC[C@@H](O)C[C@H]21 (racemic) [Compound 5, (2RS,4aRS,10bRS)-9-Ethoxy-8-methoxy-6-(4-morpholin-4-yl-phenyl)-1,2,3,4,4a,10b-hexahydro-phenanthridin-2-ol]
CCCn1nnc(-c2ccc(C3=N[C@@H]4CC[C@@H](O)C[C@@H]4c4cc(OC)c(OC)cc43)cc2)n1 (racemic) [Compound 6, (2RS,4aRS,10bRS)-8,9-Dimethoxy-6-[4-(2-propyl-2H-tetrazol-5-yl)-phenyl]-1,2,3,4,4a,10b-hexahydro-phenanthridin-2-ol]
CCn1nnc(-c2ccc(C3=N[C@@H]4CC[C@@H](O)C[C@@H]4c4cc(OC)c(OC(F)F)cc43)cc2)n1 (racemic) [Compound 7, (2RS,4aRS,10bRS)-8-(1,1-Difluoro-methoxy)-6-[4-(2ethyl-2H-tetrazol-5-yl)-phenyl]-9-methoxy-1,2,3,4,4a,10b-hexahydro-phenanthridin-2-ol]
CCn1nnc(-c2ccc(C3=N[C@@H]4CC[C@@H](O)C[C@@H]4c4cc(OC(F)F)c(OC)cc43)cc2)n1 (racemic) [Compound 8, (2RS,4aRS,10bRS)-9-(1,1-Difluoro-methoxy)-6-[4-(2-ethyl-2H-tetrazol-5-yl)-phenyl]-8-methoxy-1,2,3,4,4a,10b-hexahydro-phenanthridin-2ol]
